As usually defined, the IC50 is the concentration needed to halve the response being measured. Low readings indicate greater potency in that assay, high ones weaker potency in that assay.

Experimental findings from PMC12682947, “Identification of New KCNT1‐Epilepsy Drugs by In Silico, Cell, and Drosophila Modeling” (Annals of Neurology, 2025) are described below.

For the experiment, the target named is T1, G288S mutant KCNT1 channels (Homo sapiens, UniProt Q5JUK3, G269S).
T1 construct: YFP-6His; expressed in transfected cells; host or cells: HEK293T
T1 sequence (Q5JUK3 1-1235 isoform Q5JUK3-3 G288S): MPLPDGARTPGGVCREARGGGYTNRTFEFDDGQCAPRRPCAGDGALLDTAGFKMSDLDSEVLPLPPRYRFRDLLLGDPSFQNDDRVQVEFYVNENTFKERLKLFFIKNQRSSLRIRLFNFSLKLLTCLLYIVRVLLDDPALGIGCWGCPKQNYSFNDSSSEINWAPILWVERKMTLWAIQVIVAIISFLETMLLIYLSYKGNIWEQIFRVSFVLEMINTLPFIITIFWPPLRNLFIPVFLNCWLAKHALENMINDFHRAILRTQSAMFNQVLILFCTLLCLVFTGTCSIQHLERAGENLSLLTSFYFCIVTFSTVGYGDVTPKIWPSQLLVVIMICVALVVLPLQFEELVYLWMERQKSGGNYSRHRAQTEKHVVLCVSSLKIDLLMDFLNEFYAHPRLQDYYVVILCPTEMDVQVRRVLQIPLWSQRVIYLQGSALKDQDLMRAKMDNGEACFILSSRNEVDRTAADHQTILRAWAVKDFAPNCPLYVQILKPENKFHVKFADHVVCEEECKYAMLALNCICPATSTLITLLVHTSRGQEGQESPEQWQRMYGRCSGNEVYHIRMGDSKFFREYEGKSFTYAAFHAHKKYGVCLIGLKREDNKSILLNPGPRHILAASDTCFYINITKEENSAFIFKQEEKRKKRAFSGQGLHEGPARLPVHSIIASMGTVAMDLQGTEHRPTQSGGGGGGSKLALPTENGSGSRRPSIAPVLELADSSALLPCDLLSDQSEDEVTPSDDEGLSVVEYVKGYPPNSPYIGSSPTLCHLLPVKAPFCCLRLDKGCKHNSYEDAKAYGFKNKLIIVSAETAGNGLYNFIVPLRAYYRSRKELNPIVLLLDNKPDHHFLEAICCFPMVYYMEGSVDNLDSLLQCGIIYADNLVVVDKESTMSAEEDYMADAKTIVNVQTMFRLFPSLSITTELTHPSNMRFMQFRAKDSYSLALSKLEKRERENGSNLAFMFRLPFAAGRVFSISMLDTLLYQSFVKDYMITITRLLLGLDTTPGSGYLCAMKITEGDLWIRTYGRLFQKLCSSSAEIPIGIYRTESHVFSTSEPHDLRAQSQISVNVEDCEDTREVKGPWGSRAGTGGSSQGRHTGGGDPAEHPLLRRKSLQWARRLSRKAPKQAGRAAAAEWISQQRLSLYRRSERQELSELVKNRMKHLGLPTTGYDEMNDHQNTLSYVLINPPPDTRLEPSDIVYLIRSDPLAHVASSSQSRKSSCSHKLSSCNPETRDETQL
As to the kind of experiment: Inside-out patch clamp of HEK293T cells expressing G288S KCNT1. In kind it is cell-based. The note with it: inside-out patches, mean ± SEM. On the procedure: The CHO cells were cultured in Dulbecco's modified Eagle's Medium (ThermoFisher, UK) supplemented with 10% (v/v) fetal bovine serum, 50 U/ml penicillin and 0.05 mg/ml streptomycin, and incubated at 37°C in 5% CO2 atmosphere. For whole cell recording of WT/Y796H KCNT1, CHO cells were transiently co‐transfected with concatemeric WT/Y796H and EYFP, as described previously.[29] For electrophysiological experiments, cells were plated onto borosilicate glass cover slips and used 2 to 4 days later. Human embryonic kidney 293T cells (HEK293T) were cultured in the same manner, but with medium supplemented with 2 mM L‐glutamine, and 1% (v/v) nonessential amino acids. For excised inside‐out recording of homomeric WT or mutant YFP‐tagged KCNT1, HEK293T cells plated on glass cover slips were transfected using Attractene Transfection Reagent (Qiagen, Germany) according to the manufacturer's instructions and used 2 to 3 days later.
Inside‐out patch clamp recordings were made at room temperature (23°C) from transiently transfected HEK293T cells, as described previously.[11] The pipette solution contained, in mM, 140 NaCl, 4 KCl, 2 CaCl2, 2 MgCl2, and 10 HEPES adjusted to pH 7.4 with NaOH. […] KCNT1 currents were recorded using 2 voltage protocols, depending on the number of active channels in the patch before drug application. Macroscopic currents (number of active channels > 15) were recorded in response to 100 ms voltage ramps between −120 and 120 mV applied every 2 seconds from a holding potential of −78 mV. […] With a lower number of active channels in the patch (3–15), current traces were recorded in response to 15‐second voltage steps to −20, 0, and 20 mV from a holding potential of −78 mV. Currents recorded at each voltage and each drug concentration were averaged over the duration of the trace and normalized to the average amplitudes of the corresponding current traces in drug‐free solution. […] Single channel data were analyzed using Ana software developed by Dr Michael Pusch (Istituto di Biofisica, Genova, Italy; http://users.ge.ibf.cnr.it/pusch/programs-mik.htm). […]
For orientation: In patch-clamp work, channel activity is measured electrically.

Counter-ions that a name gives are not always drawn.

Take `O=C(OCCN1CCN(c2cccc(C(F)(F)F)c2)CC1)c1ccccc1Nc1ccnc2cc(C(F)(F)F)ccc12` [antrafenine]: the midpoint of inhibition, the IC50, lay at 13.3 ± 3.7 nM.

The compound `CC(C)c1c(C(=O)Nc2ccccc2)c(-c2ccccc2)c(-c2ccc(F)cc2)n1CC[C@@H](O)C[C@@H](O)CC(=O)O` [atorvastatin] displayed a half-maximal inhibitory concentration (IC50) of 2600 ± 1600 nM.

With `Cc1c(O)cccc1C(=O)N[C@@H](CSc1ccccc1)[C@H](O)CN1C[C@H]2CCCC[C@H]2C[C@H]1C(=O)NC(C)(C)C` [nelfinavir mesylate], the IC50 turned out to be 9.5 ± 1.8 nM.
